Assay results: the supplement of paper PMC10307832

What was measured:
Experiment in all cases: relative viability (nuclei count vs DMSO), 5 days (fraction); higher = more cells survive
Trametinib + Bortezomib = compound: CC(=O)Nc1cccc(-n2c(=O)n(C3CC3)c(=O)c3c(Nc4ccc(I)cc4F)n(C)c(=O)c(C)c32)c1 [Trametinib] + CC(C)C[C@H](NC(=O)[C@H](Cc1ccccc1)NC(=O)c1cnccn1)B(O)O [Bortezomib] (partner 0.002 µM)
How it was run: (§1)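 Relative viability is defined as nuclei in treated wells over nuclei in vehicle wells. Duplicate plates were run and medians reported. Lung cancer cell lines in 1536-well plates were dosed by pin tool one day after seeding, with one drug or with a fixed anchor-drug dose plus five library-drug doses (not always all listed) in √10 steps, and nuclei were counted after 5 days.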

Trametinib + OSI-027 = compound: CC(=O)Nc1cccc(-n2c(=O)n(C3CC3)c(=O)c3c(Nc4ccc(I)cc4F)n(C)c(=O)c(C)c32)c1 [Trametinib] + COc1cccc2cc(-c3nc([C@H]4CC[C@H](C(=O)O)CC4)n4ncnc(N)c34)[nH]c12 [OSI-027] (partner 0.5 µM)
How it was run: as §1

[1] = compound: CN1C=C(C2=CC=CC=C21)/C=C\3/C4=C(C=CC=N4)NC3=O + C[C@]1(O)C[C@@H](c2nc(-c3ccc4ccc(-c5ccccc5)nc4c3)c3c(N)nccn32)C1 [Linsitinib] (partner 1 µM)
How it was run: as §1

[2] = compound: CN1C=C(C2=CC=CC=C21)/C=C\3/C4=C(C=CC=N4)NC3=O + Nc1nc2[nH]cc(CCc3ccc(C(=O)N[C@@H](CCC(=O)O)C(=O)O)cc3)c2c(=O)[nH]1 [Pemetrexed] (partner 0.2 µM)
How it was run: as §1

Cell Line: NCI-H2405
- relative viability (Trametinib + Bortezomib; first compound 0.0025 µM): 0.999
- relative viability (Trametinib + Bortezomib; first compound 0.007906 µM): 0.909
- relative viability (Trametinib + Bortezomib; first compound 0.025 µM): 0.657
- relative viability (Trametinib + Bortezomib; first compound 0.07906 µM): 0.597
- relative viability (Trametinib + Bortezomib; first compound 0.25 µM): 0.508
- relative viability (Trametinib + OSI-027; first compound 0.0025 µM): 0.651
- relative viability (Trametinib + OSI-027; first compound 0.007906 µM): 0.621
- relative viability (Trametinib + OSI-027; first compound 0.025 µM): 0.488
- relative viability (Trametinib + OSI-027; first compound 0.07906 µM): 0.43
- relative viability (Trametinib + OSI-027; first compound 0.25 µM): 0.412
- relative viability ([1]; first compound 0.02 µM): 0.871
- relative viability ([1]; first compound 0.06325 µM): 0.912
- relative viability ([1]; first compound 0.2 µM): 0.783
- relative viability ([1]; first compound 0.6325 µM): 0.954
- relative viability ([1]; first compound 2 µM): 0.816
- relative viability ([2]; first compound 0.02 µM): 1
- relative viability ([2]; first compound 0.06325 µM): 0.955
- relative viability ([2]; first compound 0.2 µM): 0.828
- relative viability ([2]; first compound 0.6325 µM): 1.09
- relative viability ([2]; first compound 2 µM): 1.01

Cell Line: NCI-H3122
- relative viability (Trametinib + Bortezomib; first compound 0.0025 µM): 0.985
- relative viability (Trametinib + Bortezomib; first compound 0.007906 µM): 0.74
- relative viability (Trametinib + Bortezomib; first compound 0.025 µM): 0.595
- relative viability (Trametinib + Bortezomib; first compound 0.07906 µM): 0.432
- relative viability (Trametinib + Bortezomib; first compound 0.25 µM): 0.361
- relative viability (Trametinib + OSI-027; first compound 0.0025 µM): 0.555
- relative viability (Trametinib + OSI-027; first compound 0.007906 µM): 0.352
- relative viability (Trametinib + OSI-027; first compound 0.025 µM): 0.211
- relative viability (Trametinib + OSI-027; first compound 0.07906 µM): 0.169
- relative viability (Trametinib + OSI-027; first compound 0.25 µM): 0.159
- relative viability ([1]; first compound 0.02 µM): 0.895
- relative viability ([1]; first compound 0.06325 µM): 0.972
- relative viability ([1]; first compound 0.2 µM): 1.01
- relative viability ([1]; first compound 0.6325 µM): 1.06
- relative viability ([1]; first compound 2 µM): 1.04
- relative viability ([2]; first compound 0.02 µM): 0.185
- relative viability ([2]; first compound 0.06325 µM): 0.196
- relative viability ([2]; first compound 0.2 µM): 0.203
- relative viability ([2]; first compound 0.6325 µM): 0.194
- relative viability ([2]; first compound 2 µM): 0.267

Cell Line: PC-3 [JPC-3]
- relative viability (Trametinib + Bortezomib; first compound 0.0025 µM): 0.862
- relative viability (Trametinib + Bortezomib; first compound 0.007906 µM): 0.815
- relative viability (Trametinib + Bortezomib; first compound 0.025 µM): 0.837
- relative viability (Trametinib + Bortezomib; first compound 0.07906 µM): 0.716
- relative viability (Trametinib + Bortezomib; first compound 0.25 µM): 0.262
- relative viability (Trametinib + OSI-027; first compound 0.0025 µM): 0.803
- relative viability (Trametinib + OSI-027; first compound 0.007906 µM): 0.635
- relative viability (Trametinib + OSI-027; first compound 0.025 µM): 0.675
- relative viability (Trametinib + OSI-027; first compound 0.07906 µM): 0.595
- relative viability (Trametinib + OSI-027; first compound 0.25 µM): 0.581
- relative viability ([1]; first compound 0.02 µM): 0.947
- relative viability ([1]; first compound 0.06325 µM): 0.902
- relative viability ([1]; first compound 0.2 µM): 0.974
- relative viability ([1]; first compound 0.6325 µM): 0.889
- relative viability ([1]; first compound 2 µM): 0.917
- relative viability ([2]; first compound 0.02 µM): 0.846
- relative viability ([2]; first compound 0.06325 µM): 1.05
- relative viability ([2]; first compound 0.2 µM): 1.07
- relative viability ([2]; first compound 0.6325 µM): 0.8
- relative viability ([2]; first compound 2 µM): 0.79

Cell Line: PC-14
- relative viability (Trametinib + Bortezomib; first compound 0.0025 µM): 0.918
- relative viability (Trametinib + Bortezomib; first compound 0.007906 µM): 0.834
- relative viability (Trametinib + Bortezomib; first compound 0.025 µM): 0.673
- relative viability (Trametinib + Bortezomib; first compound 0.07906 µM): 0.76
- relative viability (Trametinib + Bortezomib; first compound 0.25 µM): 0.594
- relative viability (Trametinib + OSI-027; first compound 0.0025 µM): 0.843
- relative viability (Trametinib + OSI-027; first compound 0.007906 µM): 0.72
- relative viability (Trametinib + OSI-027; first compound 0.025 µM): 0.427
- relative viability (Trametinib + OSI-027; first compound 0.07906 µM): 0.411
- relative viability (Trametinib + OSI-027; first compound 0.25 µM): 0.155
- relative viability ([1]; first compound 0.02 µM): 0.95
- relative viability ([1]; first compound 0.06325 µM): 0.933
- relative viability ([1]; first compound 0.2 µM): 0.988
- relative viability ([1]; first compound 0.6325 µM): 0.929
- relative viability ([1]; first compound 2 µM): 0.96
- relative viability ([2]; first compound 0.02 µM): 0.141
- relative viability ([2]; first compound 0.06325 µM): 0.137
- relative viability ([2]; first compound 0.2 µM): 0.145
- relative viability ([2]; first compound 0.6325 µM): 0.143
- relative viability ([2]; first compound 2 µM): 0.118

Cell Line: RERF-LC-KJ
- relative viability (Trametinib + Bortezomib; first compound 0.0025 µM): 0.91
- relative viability (Trametinib + Bortezomib; first compound 0.007906 µM): 1.02
- relative viability (Trametinib + Bortezomib; first compound 0.025 µM): 0.926
- relative viability (Trametinib + Bortezomib; first compound 0.07906 µM): 0.877
- relative viability (Trametinib + Bortezomib; first compound 0.25 µM): 0.661
- relative viability (Trametinib + OSI-027; first compound 0.0025 µM): 0.493
- relative viability (Trametinib + OSI-027; first compound 0.007906 µM): 0.471
- relative viability (Trametinib + OSI-027; first compound 0.025 µM): 0.414
- relative viability (Trametinib + OSI-027; first compound 0.07906 µM): 0.459
- relative viability (Trametinib + OSI-027; first compound 0.25 µM): 0.372
- relative viability ([1]; first compound 0.02 µM): 0.886
- relative viability ([1]; first compound 0.06325 µM): 0.935
- relative viability ([1]; first compound 0.2 µM): 0.929
- relative viability ([1]; first compound 0.6325 µM): 0.813
- relative viability ([1]; first compound 2 µM): 0.84
- relative viability ([2]; first compound 0.02 µM): 0.436
- relative viability ([2]; first compound 0.06325 µM): 0.482
- relative viability ([2]; first compound 0.2 µM): 0.493
- relative viability ([2]; first compound 0.6325 µM): 0.475
- relative viability ([2]; first compound 2 µM): 0.471

Cell Line: SK-LU-1
- relative viability (Trametinib + Bortezomib; first compound 0.0025 µM): 1.13
- relative viability (Trametinib + Bortezomib; first compound 0.007906 µM): 0.815
- relative viability (Trametinib + Bortezomib; first compound 0.025 µM): 0.726
- relative viability (Trametinib + Bortezomib; first compound 0.07906 µM): 0.623
- relative viability (Trametinib + Bortezomib; first compound 0.25 µM): 0.326
- relative viability (Trametinib + OSI-027; first compound 0.0025 µM): 0.319
- relative viability (Trametinib + OSI-027; first compound 0.007906 µM): 0.313
- relative viability (Trametinib + OSI-027; first compound 0.025 µM): 0.217
- relative viability (Trametinib + OSI-027; first compound 0.07906 µM): 0.198
- relative viability (Trametinib + OSI-027; first compound 0.25 µM): 0.188
- relative viability ([1]; first compound 0.02 µM): 0.838
- relative viability ([1]; first compound 0.06325 µM): 0.894
- relative viability ([1]; first compound 0.2 µM): 1.15
- relative viability ([1]; first compound 0.6325 µM): 1.09
- relative viability ([1]; first compound 2 µM): 1.14
- relative viability ([2]; first compound 0.02 µM): 0.736
- relative viability ([2]; first compound 0.06325 µM): 0.919
- relative viability ([2]; first compound 0.2 µM): 0.898
- relative viability ([2]; first compound 0.6325 µM): 1.03
- relative viability ([2]; first compound 2 µM): 0.946

Cell Line: SW 1573
- relative viability (Trametinib + Bortezomib; first compound 0.0025 µM): 0.806
- relative viability (Trametinib + Bortezomib; first compound 0.007906 µM): 0.514
- relative viability (Trametinib + Bortezomib; first compound 0.025 µM): 0.888
- relative viability (Trametinib + Bortezomib; first compound 0.07906 µM): 0.743
- relative viability (Trametinib + Bortezomib; first compound 0.25 µM): 0.417
- relative viability (Trametinib + OSI-027; first compound 0.0025 µM): 0.474
- relative viability (Trametinib + OSI-027; first compound 0.007906 µM): 0.486
- relative viability (Trametinib + OSI-027; first compound 0.025 µM): 0.344
- relative viability (Trametinib + OSI-027; first compound 0.07906 µM): 0.338
- relative viability (Trametinib + OSI-027; first compound 0.25 µM): 0.285
- relative viability ([1]; first compound 0.02 µM): 0.894
- relative viability ([1]; first compound 0.06325 µM): 0.793
- relative viability ([1]; first compound 0.2 µM): 0.914
- relative viability ([1]; first compound 0.6325 µM): 0.787
- relative viability ([1]; first compound 2 µM): 0.965
- relative viability ([2]; first compound 0.02 µM): 0.785
- relative viability ([2]; first compound 0.06325 µM): 0.806
- relative viability ([2]; first compound 0.2 µM): 0.788
- relative viability ([2]; first compound 0.6325 µM): 0.93
- relative viability ([2]; first compound 2 µM): 0.906
